Assay results published in patent US7691416B2, “Methods of treating vascular disease” (priority 2002, dated 2010).

Tested on: p21Cip1
Experiment: Western blot of p21Cip1 expression
Type: cell-based, mouse
Source text: Animals. Male (250-350 g) Brown Norway rats (RT1^n) were used as aortic graft donors and male (250-350 g) Lewis rats (RT11) as recipients. Dawley (400-450 g) rats were used in the balloon injury model. Adult male C57BL/6, C57/S129, p21^−/− and p53^−/− null mice were purchased from Jackson Laboratory (Bar Harbor, Me.). mkk3^(−/−) null mice were generated as described Lu et al. (EMBO. 18:1845-1857 (1999)). The inos^−/− and enos^−/− mice were bred at the University of Pittsburgh. Aortic transplant model. Aortic transplantation was performed as described in Shimizu et al. (Nat. Med. 7:738-741 (2001)). Briefly, 3 to 4 cm of descending aorta was harvested from the donor and implanted between the renal arteries and the aortic bifurcation of the recipient. Both edges of the native abdominal aorta were ligated. Balloon injury model. Balloon angioplasty was carried out as described in Murakami et al. (Atherosclerosis 157:361-368 (2001)). Briefly, a 2 Fr. arterial embolectomy catheter (Baxter, Chicago, Ill.) was inserted into the common carotid artery, and injury was created by inflating the balloon to 5 atmospheres of pressure for 5 minutes. The arteries were flushed and the external carotid artery was ligated, ensuring return of blood flow through the common and internal carotid arteries. Injury of the vessel wall and subsequent pathological analysis was made in a manner that was blinded to the treatment group. CO exposure. CO was delivered to animals as described in Otterbein et al. (Nat. Med. 6:422-428 (2000)). Graft donors and recipients were exposed to CO (250 ppm) for two days before transplantation and for 56 days immediately following transplantation. In the balloon injury model, rats received either no pretreatment or were exposed to CO (250 ppm) for one hour prior to injury. Following surgery rats were housed in room air for two weeks. Cells. Primary mouse and rat smooth muscle cells (SMC) were isolated and cultured as described in Laubach et al. (Proc Natl Acad Sci USA 92:10688-9 (1995)). Mouse SMC isolated from HO-1^−/− mice were obtained as described in Duckers et al. (Nat. Med. 7:693-698 (2001)). Cell treatment and reagents. Guanylate cyclase inhibitor 1H(1,2,4) oxadiazolo(4,3-a)quinoxalin-1 (ODQ; Calbiochem-Novabiochem, San Diego, Calif.; 10-100 μM) and p38 MAPK inhibitor pyridinyl imidazol SB203580 (Calbiochem; 5-20 μM) were dissolved in DMSO. The cGMP analogue 8-bromo-cGMP sodium salt (8-Br-cGMP; Sigma-Aldrich, St. Louis, Mo.; 10-100 μM) and the PKG inhibitor (10-100 μM; Alexis Biochemicals) were dissolved in water. Cell counts and [^3H] thymidine incorporation. Rat and mouse SMC were isolated and cultured as described in Peyton et al. (Blood 99:4443-4448 (2002)). Proliferation assays were carried out as described in Petkova et al. (J Biol. Chem. 276:7932-7936 (2001)). For [^3H] thymidine incorporation studies, cells were serum-starved overnight and then stimulated with 10% serum containing 5 μCi/ml [^3H] thymidine (New England Nuclear, Boston Mass.). [^3H]thymidine incorporation was measured by scintillation spectroscopy and presented as mean counts/min/well. Histomorphometric analysis. Aortic grafts and carotid arteries were harvested at 56 and 14 days respectively. Vessels were fixed, embedded, and serially sectioned (5μ) in toto. Every third slide was stained with Hematoxylin and Eosin (H&E) for histomorphometric analyses. In both models, one or two images per slide at a resolution of 1520×1080 pixels were captured at a magnification of 25× with a Zeiss microscope (Axioskop, Iowa City, Iowa), RT color SPOT (Diagnostic Instrument, Inc., Saint Joseph, Mich.) and Windows NT (Compaq Computer) using Adobe Photoshop version 5.5 software. Areas from eight to ten captured images were calculated using digital imaging software as number of pixels corresponding to those areas. Twenty-four to forty-eight sections from each group were statistically analyzed with SPSS software version 10. Immunostaining and cell population histomorphometric analysis. […]

[C-]#[O+] [CO, carbon monoxide]
Time of maximal p21Cip1 expression after CO exposure (CO 250 ppm, increased by 4 hours, basal at 24 hours): 16 h | p21Cip1 protein expression (SMC exposed to CO (250 ppm)): up-regulated
